Assay results taken from ChEMBL document CHEMBL4819072, “Radioligand and computational insight in structure - Activity relationship of saccharin derivatives being ipsapirone and revospirone analogues” (Bioorg Med Chem Lett, 2021).

Key:
D(2) dopamine receptor = D(2) dopamine receptor (Rattus norvegicus, UniProt P61169); experiment: Displacement of [3H]-spiperone from DRD2 in rat striatum incubated for 45 mins by liquid scintillation counting; type: tissue-based
[1] = molecular target: T1, Adrenergic receptor alpha-1 (Homo sapiens, UniProt P35348+P25100+P35368); experiment: Binding affinity to human adrenergic receptor alpha1; type: protein assay
T1 sequence (P35348 whole entry): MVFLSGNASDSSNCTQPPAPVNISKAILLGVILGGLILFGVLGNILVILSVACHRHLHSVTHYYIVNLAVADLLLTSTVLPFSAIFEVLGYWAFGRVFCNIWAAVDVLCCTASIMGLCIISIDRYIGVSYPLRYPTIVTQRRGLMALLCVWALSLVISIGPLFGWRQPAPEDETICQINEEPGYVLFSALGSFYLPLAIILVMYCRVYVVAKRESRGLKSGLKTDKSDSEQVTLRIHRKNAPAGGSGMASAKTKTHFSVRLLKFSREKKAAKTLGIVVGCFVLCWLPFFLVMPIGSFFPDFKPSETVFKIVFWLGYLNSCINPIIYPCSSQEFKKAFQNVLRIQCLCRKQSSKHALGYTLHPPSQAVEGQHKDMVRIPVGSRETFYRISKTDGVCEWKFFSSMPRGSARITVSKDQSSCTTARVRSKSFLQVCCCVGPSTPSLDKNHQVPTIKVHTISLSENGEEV
T1 sequence (P25100 whole entry): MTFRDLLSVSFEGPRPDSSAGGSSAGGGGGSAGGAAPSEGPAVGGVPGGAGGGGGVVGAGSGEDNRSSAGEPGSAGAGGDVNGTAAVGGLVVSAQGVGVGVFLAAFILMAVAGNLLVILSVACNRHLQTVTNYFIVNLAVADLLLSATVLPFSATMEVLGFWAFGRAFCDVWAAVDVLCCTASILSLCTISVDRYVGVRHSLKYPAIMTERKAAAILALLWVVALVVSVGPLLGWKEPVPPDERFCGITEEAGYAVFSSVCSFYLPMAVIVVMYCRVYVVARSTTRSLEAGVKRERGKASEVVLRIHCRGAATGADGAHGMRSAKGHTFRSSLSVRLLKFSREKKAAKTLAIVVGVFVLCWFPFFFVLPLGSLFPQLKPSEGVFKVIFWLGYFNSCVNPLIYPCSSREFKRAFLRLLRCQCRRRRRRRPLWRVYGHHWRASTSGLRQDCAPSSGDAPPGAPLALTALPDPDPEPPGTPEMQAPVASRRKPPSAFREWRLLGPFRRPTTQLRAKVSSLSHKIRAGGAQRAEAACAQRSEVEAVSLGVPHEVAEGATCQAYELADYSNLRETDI
T1 sequence (P35368 whole entry): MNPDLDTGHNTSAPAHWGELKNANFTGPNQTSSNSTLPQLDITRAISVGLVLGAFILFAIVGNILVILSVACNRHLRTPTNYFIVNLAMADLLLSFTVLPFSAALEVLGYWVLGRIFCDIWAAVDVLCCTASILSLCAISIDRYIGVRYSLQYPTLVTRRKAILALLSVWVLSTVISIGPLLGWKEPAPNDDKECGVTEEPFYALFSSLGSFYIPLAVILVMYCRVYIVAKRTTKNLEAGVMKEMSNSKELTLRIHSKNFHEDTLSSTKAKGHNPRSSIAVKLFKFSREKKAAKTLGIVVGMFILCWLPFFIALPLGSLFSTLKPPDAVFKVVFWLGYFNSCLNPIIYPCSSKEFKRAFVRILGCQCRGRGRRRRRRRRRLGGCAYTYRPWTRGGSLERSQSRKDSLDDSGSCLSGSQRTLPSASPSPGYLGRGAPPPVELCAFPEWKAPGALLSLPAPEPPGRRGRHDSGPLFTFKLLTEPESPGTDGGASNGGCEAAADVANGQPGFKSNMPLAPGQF

[2] = molecular target: 5-hydroxytryptamine receptor 2A (Homo sapiens, UniProt P28223); experiment: Displacement of [3H]-ketanserin from human 5-HT2AR expressed in CHO cells; type: cell-based
Chain of 5-hydroxytryptamine receptor 2A (P28223 whole entry): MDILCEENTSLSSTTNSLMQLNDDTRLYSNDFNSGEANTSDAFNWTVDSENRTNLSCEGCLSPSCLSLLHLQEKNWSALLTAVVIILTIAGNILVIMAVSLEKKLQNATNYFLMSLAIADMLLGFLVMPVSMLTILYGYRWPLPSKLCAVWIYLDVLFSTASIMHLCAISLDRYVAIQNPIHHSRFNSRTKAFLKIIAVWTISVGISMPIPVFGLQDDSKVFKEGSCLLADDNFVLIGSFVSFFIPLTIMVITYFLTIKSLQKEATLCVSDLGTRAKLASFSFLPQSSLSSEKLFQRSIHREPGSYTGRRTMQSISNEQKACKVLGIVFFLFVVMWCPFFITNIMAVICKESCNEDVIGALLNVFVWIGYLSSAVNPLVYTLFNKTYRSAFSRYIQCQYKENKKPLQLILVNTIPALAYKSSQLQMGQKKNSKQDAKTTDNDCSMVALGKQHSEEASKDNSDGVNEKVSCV

D(1A) dopamine receptor = D(1A) dopamine receptor (Homo sapiens, UniProt P21728); experiment: Binding affinity to human D1R
Chain of D(1A) dopamine receptor (P21728 whole entry): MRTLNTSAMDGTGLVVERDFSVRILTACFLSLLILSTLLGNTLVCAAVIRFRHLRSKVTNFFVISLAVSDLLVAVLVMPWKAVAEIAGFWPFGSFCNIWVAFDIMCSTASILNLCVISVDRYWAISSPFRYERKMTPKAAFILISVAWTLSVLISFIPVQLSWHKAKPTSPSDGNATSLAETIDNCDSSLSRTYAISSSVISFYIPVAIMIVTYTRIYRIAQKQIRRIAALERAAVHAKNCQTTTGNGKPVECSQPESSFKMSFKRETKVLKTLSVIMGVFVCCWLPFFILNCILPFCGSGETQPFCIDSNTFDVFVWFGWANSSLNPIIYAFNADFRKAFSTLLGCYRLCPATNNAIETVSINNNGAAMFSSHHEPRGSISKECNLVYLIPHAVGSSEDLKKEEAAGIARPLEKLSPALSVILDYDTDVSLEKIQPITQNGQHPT

[3] = molecular target: T2, 5-hydroxytryptamine receptor 1A (Rattus norvegicus, UniProt P19327); experiment: Displacement of [3H]-[…] from Wistar rat frontal region 5-HT1AR incubated for 30 mins; type: tissue-based, Frontal lobe
T2 sequence (P19327 whole entry): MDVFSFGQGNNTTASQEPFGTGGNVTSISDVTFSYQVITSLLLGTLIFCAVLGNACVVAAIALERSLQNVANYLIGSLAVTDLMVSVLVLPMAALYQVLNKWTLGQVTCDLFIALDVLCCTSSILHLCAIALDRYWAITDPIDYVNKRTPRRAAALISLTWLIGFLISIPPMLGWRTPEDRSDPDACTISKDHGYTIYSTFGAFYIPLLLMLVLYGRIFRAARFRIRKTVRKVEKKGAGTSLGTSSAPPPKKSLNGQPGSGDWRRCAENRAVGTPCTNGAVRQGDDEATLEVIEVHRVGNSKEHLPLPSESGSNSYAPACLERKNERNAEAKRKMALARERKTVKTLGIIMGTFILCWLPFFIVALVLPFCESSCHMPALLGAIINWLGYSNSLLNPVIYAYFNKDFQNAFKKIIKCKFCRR

D(4) dopamine receptor = molecular target: T3, D(4) dopamine receptor (Homo sapiens, UniProt P21917); experiment: Binding affinity to human D4R
T3 sequence (P21917 whole entry): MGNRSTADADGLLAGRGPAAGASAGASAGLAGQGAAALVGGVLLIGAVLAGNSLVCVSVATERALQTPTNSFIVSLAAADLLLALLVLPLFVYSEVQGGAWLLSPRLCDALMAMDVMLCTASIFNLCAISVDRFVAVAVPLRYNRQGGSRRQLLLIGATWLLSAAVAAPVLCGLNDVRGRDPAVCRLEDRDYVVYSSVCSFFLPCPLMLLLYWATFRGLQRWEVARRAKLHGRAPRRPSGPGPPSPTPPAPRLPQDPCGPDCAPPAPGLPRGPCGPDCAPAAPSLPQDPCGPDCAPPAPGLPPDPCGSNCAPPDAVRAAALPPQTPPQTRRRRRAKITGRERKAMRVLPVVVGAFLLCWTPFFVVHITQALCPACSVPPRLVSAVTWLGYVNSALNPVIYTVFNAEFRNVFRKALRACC

[4] = molecular target: T4, 5-hydroxytryptamine receptor 2C (Homo sapiens, UniProt P28335); experiment: Binding affinity to human 5-HT2C
T4 sequence (P28335 whole entry): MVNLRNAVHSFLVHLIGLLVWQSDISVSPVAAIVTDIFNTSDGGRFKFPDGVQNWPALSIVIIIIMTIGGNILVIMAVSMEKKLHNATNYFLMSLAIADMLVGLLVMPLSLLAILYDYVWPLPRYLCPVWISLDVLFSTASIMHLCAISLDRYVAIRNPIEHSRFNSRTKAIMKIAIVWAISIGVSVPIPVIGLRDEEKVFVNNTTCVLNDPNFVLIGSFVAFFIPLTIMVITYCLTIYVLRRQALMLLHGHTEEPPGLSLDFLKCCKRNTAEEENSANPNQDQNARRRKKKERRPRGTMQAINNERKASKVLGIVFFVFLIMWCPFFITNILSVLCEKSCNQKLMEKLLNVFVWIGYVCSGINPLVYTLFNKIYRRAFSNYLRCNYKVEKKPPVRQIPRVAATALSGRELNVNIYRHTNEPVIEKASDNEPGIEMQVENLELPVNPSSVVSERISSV

[5] = molecular target: T5, 5-hydroxytryptamine receptor 1A (Homo sapiens, UniProt P08908); experiment: Displacement of [3H]-[…] from human 5-HT1AR expressed in human HEK293 cells; type: cell-based
T5 sequence (P08908 whole entry): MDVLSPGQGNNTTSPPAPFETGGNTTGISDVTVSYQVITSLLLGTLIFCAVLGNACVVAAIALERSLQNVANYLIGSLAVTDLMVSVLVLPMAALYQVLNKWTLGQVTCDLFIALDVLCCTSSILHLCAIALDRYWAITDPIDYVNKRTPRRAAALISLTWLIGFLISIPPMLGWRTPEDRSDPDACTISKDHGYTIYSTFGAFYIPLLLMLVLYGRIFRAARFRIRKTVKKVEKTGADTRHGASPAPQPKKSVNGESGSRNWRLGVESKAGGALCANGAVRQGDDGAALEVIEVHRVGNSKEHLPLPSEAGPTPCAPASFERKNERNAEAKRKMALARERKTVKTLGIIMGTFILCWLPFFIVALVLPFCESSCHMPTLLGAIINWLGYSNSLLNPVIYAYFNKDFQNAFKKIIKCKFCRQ

Chain of D(2) dopamine receptor (P61169 whole entry): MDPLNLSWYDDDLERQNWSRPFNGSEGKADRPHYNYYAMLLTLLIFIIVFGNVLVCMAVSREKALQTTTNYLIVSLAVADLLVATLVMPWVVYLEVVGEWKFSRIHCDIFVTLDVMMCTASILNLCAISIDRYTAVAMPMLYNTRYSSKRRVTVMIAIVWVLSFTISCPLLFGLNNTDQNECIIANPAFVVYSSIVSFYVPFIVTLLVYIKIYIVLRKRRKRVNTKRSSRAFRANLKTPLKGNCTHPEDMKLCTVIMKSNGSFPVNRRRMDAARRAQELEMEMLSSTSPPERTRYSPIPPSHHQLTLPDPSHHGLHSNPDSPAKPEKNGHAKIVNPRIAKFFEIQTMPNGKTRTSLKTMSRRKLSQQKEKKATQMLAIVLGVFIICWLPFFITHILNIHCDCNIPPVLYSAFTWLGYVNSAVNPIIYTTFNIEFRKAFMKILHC

O=C1c2ccccc2S(=O)(=O)N1CCCCN1CCN(c2cccc(C(F)(F)F)c2)CC1
Ki (D(2) dopamine receptor): 2250 nM | Ki [1]: 1500 nM | Ki [2]: 2250 nM | Ki (D(1A) dopamine receptor): > 5000 nM | Ki [3]: 100 nM | Ki (D(4) dopamine receptor): > 5000 nM | Ki [4]: > 5000 nM | Ki [5]: 100 nM
